Test results reported in patent US5541182A, “Benzodiazepine aryl urea derivatives” (Yamanouchi Pharmaceutical Co., Ltd., priority 1990, dated 1996).
pKi: −log10 of the molar value.

Assays:
CCK-B receptor = target: T1, CCK-B receptor (Rattus norvegicus, UniProt P30553); assay: Binding action upon CCK-B receptor ([125I]BH.CCK-8, rat whole brain membrane); design: species or system SD rat; conditions: [125I]BH.CCK-8, 25° C., 120 min, pH 6.5
T1 construct: the whole brain was immediately excised from each of the cut heads and homogenized; from tissue; host or cells: SD rat whole brain, membrane preparation
T1 sequence (P30553 whole entry): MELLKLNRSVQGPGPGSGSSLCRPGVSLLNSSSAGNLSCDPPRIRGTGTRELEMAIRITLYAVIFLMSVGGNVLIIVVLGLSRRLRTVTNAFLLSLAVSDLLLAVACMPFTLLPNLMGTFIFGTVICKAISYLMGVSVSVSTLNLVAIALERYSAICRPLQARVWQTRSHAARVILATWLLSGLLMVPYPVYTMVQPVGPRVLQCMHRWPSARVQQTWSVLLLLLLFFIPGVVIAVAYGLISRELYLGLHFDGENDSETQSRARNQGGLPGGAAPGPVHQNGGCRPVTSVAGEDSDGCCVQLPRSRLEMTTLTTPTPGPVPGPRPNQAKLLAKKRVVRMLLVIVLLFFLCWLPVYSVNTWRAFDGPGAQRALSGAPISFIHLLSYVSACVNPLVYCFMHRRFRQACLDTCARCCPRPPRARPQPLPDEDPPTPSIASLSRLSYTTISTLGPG
Protocol: Measurement of the binding action upon CCK-B receptor:
About 100 heads of SD rats were decapitated without anesthesia, the whole brain was immediately excised from each of the cut heads and homogenized in 10-fold volume of 0.32M aqueous solution of sucrose by the use of a Teflon-coated homogenizer, the homogenate thus obtained was centrifuged for ten minutes at 900 g by the use of a cooled centrifuge, and the supernatant was further centrifuged for 15 minutes at 11500 g. The precipitate thus obtained was dispersed in 50 mM Tris-HCl buffer (pH 7.4) containing 0.08% Triton X-100, this suspension was allowed to stand for 30 minutes and again centrifuged for 15 minutes at 11500 g, the precipitate thus obtained was washed twice with 5 mM Tris-HCl buffer and twice with 50 mM Tris-HCl buffer in that order through centrifugal separation, the washed precipitate was suspended in 50 mM Tris-HCl buffer, and the suspension thus obtained was freeze-stored at -80° C., thus giving membrane preparation.
The membrane preparation was molten at room temperature, diluted with 10 mM HEPES buffer (containing 130 mM NaCl, 5 mM MgCl2, 1 mM EGTA and 0.25 mg/ml bacitracin; pH 6.5) and incubated at 25° C. for 120 minutes in the presence of [^125 I]BH.cndot.CCK-8, and B/F separation was performed by suction filtration. Nonspecific binding was determined in the presence of 1 μM CCK-8. The amount of labelled ligand bound to the receptor was measured by the use of a […]; Ki (CCK-B) values were determined from the binding inhibition curve of the test sample, with the maximum amount of labelled ligand bound to the receptor being set as 100%.

benzodiazepine receptor = assay: Binding to the benzodiazepine receptor; conditions: even at 10 μM
[1] = system: CCK-A receptor vs CCK-B receptor; assay: Selectivity for CCK-B receptor by comparison with binding to CCK-A receptor (rat pancreas membrane, [3H]L-364,718); design: species or system SD rat; conditions: rat pancreas (CCK-A) vs rat brain (CCK-B)
Protocol: Measurement of selectivity for CCK-B receptor by comparison with the binding to CCK-A receptor in rats:
The pancreas of an SD rat was homogenized in 20-fold volume of 50 mM Tris-HCl buffer (pH 7.7) by the use of a Polytrone-type homogenizer, the homogenate was twice centrifuged for 10 minutes at 50000 g by the use of an ultracentrifuge, the precipitate thus obtained was suspended in 40-fold volume of 50 mM Tris-HCl buffer (containing 0.2% BSA, 5 mM MgCl2, 0.1 mg/ml bacitracin and 5 mM DTT; pH 7.7), and the suspension was freeze-stored at -80° C., thus giving membrane preparation.
The membrane preparation was then molten at room temperature, diluted ten times with the buffer and incubated at 37° C. for 30 minutes in the presence of [^3 H]L-364, 718, and B/F separation was performed by suction filtration. Nonspecific binding was determined in the presence of 1 μM L-364, 718. The amount of labelled ligand bound to the receptor was measured by the use of a liquid scintillation counter; Ki (CCK-A) values were determined from the binding inhibition curve of the test sample, with the maximum amount of labelled ligand bound to the receptor being set as 100%.
The Ki (CCK-A)/Ki (CCK-B) value of the present compound can be calculated from the above test. The higher the value of Ki (CCK-A)/Ki (CCK-B), the higher will be the selectivity to the CCK-B receptor.

[2] = system: gastric-acid secretion caused by the stimulus of pentagastrin; assay: Depression of gastric-acid secretion caused by the stimulus of pentagastrin; format: in vivo; conditions: Rattus norvegicus, iv; SD rats, urethane anesthetized, i.v. test drug, pentagastrin 15 μg/kg/hr i.v.
Excerpt: Measurement of the action of depressing the gastric-acid secretion caused by the stimulus of pentagastrin:
A cannula was inserted into the trachea of a rat anesthetized with urethane (intraperitoneally administered in an amount of 1.25 g/kg), its abdominal wall was incised to expose the gastric and duodenal portions, and a polyethylene cannula was set at the anterior stomach after ligation of the cardia. The duodenum was then subjected to slight section, a polyethylene cannula was inserted from the incised portion toward the stomach, and the pylorus was ligated to fix the cannula.
Physiological saline (with pH adjusted to 7.0) was flown from the anterior stomach toward the pylorus at a speed of 3 ml/min, and the gastric-acid secretion was measured by continuous titration of the flown saline by the use of a pH-stat (AUT-201; product of Toa Electronics, Ltd.). The continuous titration was carried out by using 25 mM caustic soda solution until the pH reached 7.0, and the result was expressed as the amount of gastric acid secreted for every ten minutes (μEq /10 min.). Pentagastrin was intravenously administered at a rate of 15 μg/kg/hr. The secretion of gastric acid increased upon administration of pentagastrin, reaching the maximum level after 60 minutes and stably maintaining this level after that. […]

Structure (SMILES) | pKi (CCK-B receptor) | binding action to the benzodiazepine receptor (in words) (benzodiazepine receptor) | Ki (CCK-A)/Ki (CCK-B), selectivity for the CCK-B receptor [1] | ED50 [2]
Cc1cccc(NC(=O)NC2N=C(c3ccccc3)c3ccccc3N(CC(=O)c3sccc3C)C2=O)c1 (stereo not shown) [Example 13, 1-[2,3-Dihydro-1-(3-methyl-2-thenoyl)methyl-2-oxo-5-phenyl-1H-1,4-benzodiazepin-3-yl]-3-(3-tolyl)urea] | 9.80 |  |  | 
Cc1cccc(NC(=O)N[C@@H]2N=C(c3ccccc3)c3ccccc3N(CC(=O)c3ccccc3C)C2=O)c1 [Example 16, (R)-1-[2,3-dihydro-1-(2'-methylphenacyl)-2-oxo-5-phenyl-1H-1,4-benzodiazepin-3-yl]-3-(3-tolyl)urea] |  | no binding action at all |  | 
Cc1ccc(C(=O)CN2C(=O)C(NC(=O)Nc3cccc(C)c3)N=C(c3ccccc3)c3ccccc32)cc1 (stereo not shown) [Example 7, 1-[2,3-Dihydro-1-(4'-methylphenacyl)-2-oxo-5-phenyl-1H-1,4-benzodiazepin-3-yl]-3-(3-tolyl)urea] | 9.66 |  | 864 fold | 
Cc1cccc(NC(=O)NC2N=C(c3ccccc3)c3ccccc3N(CC(=O)c3ccccc3C)C2=O)c1 (stereo not shown) [Example 2, 1-[2,3-dihydro-1-(2'-methylphenacyl)-2-oxo-5-phenyl-1H-1,4-benzodiazepin-3-yl]-3-(3-tolyl)urea] | 9.82 |  | 1733 fold | 0.03 µmol/kg
